# Source: publication PMC6131563, “Talaropeptides A-D: Structure and Biosynthesis of Extensively N-methylated Linear Peptides From an Australian Marine Tunicate-Derived Talaromyces sp” (Frontiers in Chemistry, 2018)
# Like-named read-outs stand apart in the source and are kept apart here. Where a SMILES comes first, the peptide text is derived from it. [ ]: non-standard residue; d: D form. NMeF = CN[C@@H](Cc1ccccc1)C(=O)O; NMeI = CC[C@H](C)[C@H](NC)C(=O)O; NMeV = CN[C@H](C(=O)O)C(C)C; NMeA = CN[C@@H](C)C(=O)O
# Tests used:
# [1] = system: Bacillus subtilis ATCC 6633; type: cell-based; settings: ATCC 6633, 24 h
# NCI-H460 = assay: cells; parameters: MTT assay of cancer cell growth inhibition, absorbance at 580 nm; settings: Homo sapiens, NCI-H460, 48 h
# Description: (§1) Adherent cell SW620 (human colorectal carcinoma) and NCI-H460 (human lung carcinoma) cells were cultured in Roswell Park Memorial Institute (RPMI) 1640 medium. All cells were cultured as adherent mono-layers in flasks supplemented with 10% fetal bovine serum, L–glutamine (2 mM), penicillin (100 unit/mL), and streptomycin (100 μg/mL), in a humidified 37°C incubator supplied with 5% CO2. Briefly, cells were harvested with trypsin and dispensed into 96-well microtiter assay plates at 3,000 cells/well, after which they were incubated for 18 h at 37°C with 5% CO2 (to allow cells to attach as adherent mono-layers). Test compounds were dissolved in 20% DMSO in PBS (v/v) and aliquots (10 μL) applied to cells over a series of final concentrations ranging from 10 nM to 30 μM. After 48 h incubation at 37°C with 5% CO2 an aliquot (20 μL) of 3-(4,5-dimethylthiazol-2-yl)-2,5-diphenyltetrazolium bromide (MTT) in phosphate buffered saline (PBS, 5 mg/mL) was added to each well (final concentration 0.5 mg/mL), and microtiter plates were incubated for a further 4 h at 37°C with 5% CO2. After final incubation, the medium was aspirated and precipitated formazan crystals dissolved in DMSO (100 μL/well). The absorbance of each well was measured at 580 nm with a PowerWave XS Microplate Reader from Bio-Tek Instruments Inc. Where relevant, IC50 values were calculated using Prism 7.0, as the concentration of analyte required for 50% inhibition of cancer cell growth (compared to negative controls). Negative control was 1% aqueous DMSO, while positive control was doxorubicin (30 μM). All experiments were performed in duplicate.
# SW620 = assay: cells; parameters: MTT assay of cancer cell growth inhibition, absorbance at 580 nm; settings: Homo sapiens, SW-620, 48 h
# Description: as §1
structure (smiles),measurement,setting,value
"CC[C@H](C)[C@@H](C(=O)N[C@@H](CC(C)C)C(=O)O)N(C)C(=O)[C@H](Cc1ccccc1)N(C)C(=O)[C@H](C(C)C)N(C)C(=O)[C@H](C(C)C)N(C)C(=O)[C@@H]1CCCN1C(=O)[C@H](C(C)C)N(C)C(=O)[C@@H](NC(=O)[C@@H](NC(=O)[C@H](C(C)C)N(C)C(=O)[C@H](C)NC)C(C)C)[C@@H](C)O [compound 2, talaropeptide A] (H-[NMeA][NMeV]VT[NMeV]P[NMeV][NMeV][NMeF][NMeI]L-OH)",IC50,[1],1.5 µM
same,IC50,NCI-H460; read-out: 2,> 30 µM
same,IC50,SW620; read-out: 2,> 30 µM
"CC[C@H](C)[C@@H](C(=O)N[C@@H](CC(C)C)C(=O)O)N(C)C(=O)[C@H](Cc1ccccc1)N(C)C(=O)[C@H](C(C)C)N(C)C(=O)[C@H](C(C)C)N(C)C(=O)[C@@H]1CCCN1C(=O)[C@H](C(C)C)N(C)C(=O)[C@@H](NC(=O)[C@@H](NC(=O)[C@@H](NC(=O)[C@H](C(C)C)N(C)C(=O)[C@H](C)N(C)C(C)=O)C(C)C)[C@@H](C)O)C(C)C [compound 5, talaropeptide D] (Ac-[NMeA][NMeV]VTV[NMeV]P[NMeV][NMeV][NMeF][NMeI]L-OH)",IC50,NCI-H460; read-out: 5,> 30 µM
same,IC50,SW620; read-out: 5,> 30 µM
"CC[C@H](C)[C@@H](C(=O)N[C@@H](CC(C)C)C(=O)O)N(C)C(=O)[C@H](Cc1ccccc1)N(C)C(=O)[C@H](C(C)C)N(C)C(=O)[C@H](C(C)C)N(C)C(=O)[C@@H]1CCCN1C(=O)[C@H](C(C)C)N(C)C(=O)[C@@H](NC(=O)[C@@H](NC(=O)[C@@H](NC(=O)[C@H](C(C)C)N(C)C(=O)[C@H](C)NC)C(C)C)[C@@H](C)O)C(C)C [compound 3, talaropeptide B] (H-[NMeA][NMeV]VTV[NMeV]P[NMeV][NMeV][NMeF][NMeI]L-OH)",IC50,[1],3.7 µM
same,IC50,NCI-H460; read-out: 3,> 30 µM
same,IC50,SW620; read-out: 3,> 30 µM
"CC[C@H](C)[C@@H](C(=O)N[C@@H](CC(C)C)C(=O)O)N(C)C(=O)[C@H](Cc1ccccc1)N(C)C(=O)[C@H](C(C)C)N(C)C(=O)[C@H](C(C)C)N(C)C(=O)[C@@H]1CCCN1C(=O)[C@H](C(C)C)N(C)C(=O)[C@@H](NC(=O)[C@@H](NC(=O)[C@H](C(C)C)N(C)C(=O)[C@H](C)N(C)C(C)=O)C(C)C)[C@@H](C)O [compound 4, talaropeptide C] (Ac-[NMeA][NMeV]VT[NMeV]P[NMeV][NMeV][NMeF][NMeI]L-OH)",IC50,NCI-H460; read-out: 4,> 30 µM
same,IC50,SW620; read-out: 4,> 30 µM
